Results: US20110287110A1, “COMBINATION CANCER TREATMENT” (priority 2010, published 2011)

Key:
[1] = tested on: bladder cancer cell lines (5637, J82, RT4, MB49, MBT2, NBT2); test: Clonogenic survival assay, sensitivity to cisplatin in bladder cancer cell lines; assay type: cell-based, human and rodent; settings: cells expressing higher basal levels of Ctr1 (5637 and MBT2) vs other lines; cisplatin 1, 5, 10, or 50 μM for 2 hours; FIG. 1
Protocol: Bladder cell lines (5637, J82, RT4, MB49, MBT2, and NBT2) were kindly provided by Brant A. Inman, MD. J82, NBT2, MB49, and MBT2 cells were cultured in Dulbecco's modified Eagle's medium (DMEM) containing 10% fetal bovine serum (FBS) and 1% antibiotic-antimycotic (AA; Invitrogen). RT4 and 5637 cells were cultured in McCoy's 5A modified medium and RPMI-1640 medium, respectively, containing 10% FBS and 1% AA. The WT and Ctr1−/− MEF cell lines as well as the Ctr1 antibody were kindly provided by Dennis J. Thiele, PhD. MEF cells were cultured in DMEM containing 20% FBS, 1% L-Glutamine-Penicillin-Streptomycin (Sigma), 1% sodium pyruvate, 1% nonessential amino acids, 0.5 mg/L uridine (Sigma), and 55 μM 2-mercaptoethanol. […]
Basal Ctr1 protein expression was assessed using Western blot in several different human (5637, J82, and RT4) and rodent (MB49, MBT2, and NBT2) bladder cancer cell lines. […] Samples were centrifuged at 12,000 rpm, and 100 μg of protein was separated using 4-20% SDS-PAGE, transferred to PVDF membrane and detected by chemiluminescence using anti-Ctr1 antibody (1:1000; kindly provided by Dennis J. Thiele, PhD) followed by anti-rabbit HRP antibody (1:2000; Bio-Rad). Sensitivity to cisplatin was assessed using a clonogenic survival assay. […] Cells were incubated until colonies (50+ cells) were detected (7-14 days). Colonies were then stained using crystal violet and counted.

[2] = tested on: WT and Ctr1−/− mouse embryonic fibroblasts (MEFs); test: Clonogenic survival assay, sensitivity to cisplatin in WT and Ctr1−/− MEFs; assay type: cell-based; settings: cisplatin 1, 5, or 10 μM for 2 hours, FIG. 2
Protocol: (§1) Bladder cell lines (5637, J82, RT4, MB49, MBT2, and NBT2) were kindly provided by Brant A. Inman, MD. J82, NBT2, MB49, and MBT2 cells were cultured in Dulbecco's modified Eagle's medium (DMEM) containing 10% fetal bovine serum (FBS) and 1% antibiotic-antimycotic (AA; Invitrogen). RT4 and 5637 cells were cultured in McCoy's 5A modified medium and RPMI-1640 medium, respectively, containing 10% FBS and 1% AA. The WT and Ctr1−/− MEF cell lines as well as the Ctr1 antibody were kindly provided by Dennis J. Thiele, PhD. MEF cells were cultured in DMEM containing 20% FBS, 1% L-Glutamine-Penicillin-Streptomycin (Sigma), 1% sodium pyruvate, 1% nonessential amino acids, 0.5 mg/L uridine (Sigma), and 55 μM 2-mercaptoethanol. All cells were maintained at 37° C. and at 5% CO2.
Basal Ctr1 protein expression was assessed using western blot in WT and Ctr1−/− mouse embryonic fibroblasts (MEFs). Sensitivity to cisplatin was assessed using a clonogenic survival assay. Briefly, a known density of cells was plated in 6-well plates. Approximately 18-24 hours after plating, cells were exposed to cisplatin (1, 5, or 10 μM; APP Pharmaceuticals; 50 mg/50 mL) or saline for 2 hours. […] Cells were incubated until colonies (50+ cells) were detected (7-14 days). Colonies were then stained using crystal violet and counted.

WT and Ctr1−/− MEFs [3] = test: Cisplatin uptake/accumulation (intracellular platinum by ICP-AES) in MEFs; assay type: cell-based, mouse; settings: cisplatin 100 μg/mL
Protocol: as §1
WT and Ctr1−/− MEFs were plated into T175 flasks and treated with concurrent hyperthermia (42° C.) or normothermia (37° C.) and cisplatin (100 μg/mL; APP Pharmaceuticals; 50 mg/50 mL) for 1 hour. Following this 1 hour incubation, cells were incubated with cisplatin for an additional hour at 37° C. Cells were then washed twice with PBS and harvested into 1 mL of 3N HCl and 10% TCA. Samples were digested at 70° C. for 18 hours and centrifuged at 20,800×g for 5 minutes. The supernatants were collected, and intracellular platinum accumulation was measured using inductively coupled plasma atomic emission spectroscopy (ICP-AES) at the EPA, Chapel Hill, N.C.

WT and Ctr1−/− MEFs [4] = test: Platinum-DNA adduct formation (immunofluorescence) in MEFs; assay type: cell-based, mouse; settings: WT compared to Ctr1−/− cells, particularly following hyperthermia; 50 μg/mL cisplatin; FIG. 4
Protocol: as §1
WT and Ctr1−/− MEFs were plated on coverslips (80,000-90,000 cells) in 6-well plates. Approximately 24-48 hours after plating, cells were treated with or without concurrent mild hyperthermia (42° C.) or normothermia (37° C.) and 50 μg/mL cisplatin (APP Pharmaceuticals; 50 mg/50 mL) for 1 hour. Following this initial 1 hour treatment, cells were incubated for 3 additional hours at 37° C. Following treatment, platinum-DNA adducts were stained using immunofluorescence. […] Cells were imaged using a Zeiss Axio Imager widefield fluorescence microscope (Carl Zeiss MicroImaging).

Ctr1 = settings: cells with Ctr1 deleted; Ishida et al. 2002, Larson et al. 2009; cited from earlier work

SMILES: N.N.[Cl][Pt][Cl] [cisplatin, cis-diamminedichloroplatinum (II)]
- Sensitivity to cisplatin (clonogenic survival) [1]: more sensitive
- Sensitivity to cisplatin (clonogenic survival) ([2]; Ctr1−/− MEFs (do not express Ctr1)): more resistant
- Sensitivity to cisplatin (clonogenic survival) ([2]; WT MEFs (higher basal Ctr1)): more sensitive
- Further increase in platinum uptake after hyperthermia (WT and Ctr1−/− MEFs [3]; Ctr1−/− cells, hyperthermia 42° C. vs normothermia 37° C.): not observed
- Platinum levels (intracellular platinum accumulation) (WT and Ctr1−/− MEFs [3]; WT cells compared to Ctr1−/− cells, with and without hyperthermia (42° C.), FIG. 3): Higher platinum levels
- Platinum uptake after hyperthermia (WT and Ctr1−/− MEFs [3]; WT cells, hyperthermia 42° C. vs normothermia 37° C.): further increase
- Percentages of adduct-positive cells and adduct formation (WT and Ctr1−/− MEFs [4]): Higher
- Cisplatin resistance (Ctr1): increased
- Cisplatin uptake (Ctr1): decreased
